A word on the IC50: it is the midpoint of a concentration-inhibition curve. For orientation: inhibition means the drop in the measured response relative to a control, in per cent. Higher therefore signals a response far below the control.

Consider 13 compounds from patent US8134015B2, “Compound inhibiting in vivo phosphorous transport and medicine containing the same” (Kyowa Hakko Kirin Co., Ltd., priority 2003, dated 2012).

One assay addresses T1, rat NaPi-2b (Rattus norvegicus, UniProt Q9JJ09).
T1 construct: expressed in transfected cells; host or cells: Xenopus oocytes injected with cRNA
T1 sequence (Q9JJ09 1-695): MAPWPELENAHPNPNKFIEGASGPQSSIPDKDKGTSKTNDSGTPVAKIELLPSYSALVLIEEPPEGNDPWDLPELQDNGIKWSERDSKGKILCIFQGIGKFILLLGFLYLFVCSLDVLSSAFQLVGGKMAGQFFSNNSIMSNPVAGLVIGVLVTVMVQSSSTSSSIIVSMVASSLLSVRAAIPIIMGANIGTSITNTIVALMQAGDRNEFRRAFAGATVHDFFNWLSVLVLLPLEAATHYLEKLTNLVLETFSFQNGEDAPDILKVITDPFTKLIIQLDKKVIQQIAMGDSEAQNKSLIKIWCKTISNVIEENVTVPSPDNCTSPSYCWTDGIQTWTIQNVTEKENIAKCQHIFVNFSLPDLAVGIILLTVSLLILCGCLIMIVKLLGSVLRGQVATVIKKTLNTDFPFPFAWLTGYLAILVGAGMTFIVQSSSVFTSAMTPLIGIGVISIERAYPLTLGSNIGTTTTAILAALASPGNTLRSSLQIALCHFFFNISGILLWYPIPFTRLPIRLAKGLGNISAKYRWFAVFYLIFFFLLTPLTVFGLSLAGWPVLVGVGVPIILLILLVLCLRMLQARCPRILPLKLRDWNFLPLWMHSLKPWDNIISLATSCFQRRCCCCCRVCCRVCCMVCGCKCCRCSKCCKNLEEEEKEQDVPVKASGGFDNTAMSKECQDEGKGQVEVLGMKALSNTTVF
Put plainly: Sodium-dependent phosphate uptake of Xenopus oocytes which expressed NaPi-2b (32P). Type of assay: cell-based. The settings on record: Xenopus oocytes expressing rat NaPi-2b, 32P radioactive phosphorus; read-out: IC50 (phosphate uptake inhibitory activity). Put shortly:
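Percent inhibition at 300 μM and 100 μM comes from the same inhibition curve of 32P uptake. Assay used oocytes expressing rat NaPi-2b after 2 days of culture.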
For `Cc1cccc(/C=N/NC(=O)c2cc(Br)ccc2NC(=O)c2ccno2)c1` [Compound 511, Isoxazole-5-carboxylic acid [4-bromo-2-(3-methyl-benzylidene-hydrazinocarbonyl)-phenyl]-amide], the IC50 was 2.16 µM. The same measure, in the same setting: with `Cc1ccc(/C=N/NC(=O)c2cc(Cl)ccc2NC(=O)c2cccc(C[S+]([O-])Cc3ccco3)c2)cc1C` (stereo not shown) [Compound 687, N-[4-Chloro-2-(3,4-dimethyl-benzylidene-hydrazinocarbonyl)-phenyl]-3-(furan-2-ylmethanesulfinylmethyl)-benzamide] the figure was below 3 µM.

On to `Cc1ccc(/C=N/NC(=O)c2ccccc2NC(=O)c2cccc(OC(F)(F)F)c2)cc1` [Compound 124], for which the IC50 is 3.15 µM. On the same count and under the same terms, the value for `CCN(CC)CCN(Cc1cccc(C(=O)Nc2sc3c(c2C(=O)N/N=C/c2ccc(F)cc2)CCCC3)c1)C(C)=O` [Compound 654, 3-{[Acetyl-(2-diethylamino-ethyl)-amino]-methyl}-N-[3-(4-fluoro-benzylidene-hydrazinocarbonyl)-4,5,6,7-tetrahydro-benzo[b]-thiophen-2-yl]-benzamide] was 2.03 µM; that for `COc1ccc(/C=N/NC(=O)c2cc(N3CCN(C)CC3)ccc2NC(=O)c2cccc(CSCCO)c2)cc1` [Compound 1073, 3-(2-Hydroxy-ethylsulfanylmethyl)-N-[2-(4-methoxy-benzylidene-hydrazinocarbonyl)-4-(4-methyl-piperazin-1-yl)-phenyl]-benzamide] was 20.4 µM. Same read-out and setting: the value for `Cc1ccc(/C=N/n2c(-c3cccc(CSCCO)c3)nc3ccc(Br)cc3c2=O)cc1C` [Compound 697, 6-Bromo-3-[(3,4-dimethyl-benzylidene-)-amino]-2-[3-(2-hydroxy-ethylsulfanylmethyl)-phenyl]-3H-quinazolin-4-one] was below 3 µM; that for `CCN(CC)CCN(C)Cc1cccc(C(=O)Nc2ccc(OCCOC)cc2C(=O)N/N=C/c2cccc(F)c2)c1` [Compound 1025, 3-{[(2-Diethylamino-ethyl)-methyl-amino]-methyl}-N-[2-(3-fluoro-benzylidene-hydrazinocarbonyl)-4-(2-methoxy-ethoxy)-phenyl]-benzamide] was 5.71 µM. Same read-out and setting: the value for `COc1ccc(C(=O)Nc2ccccc2C(=O)N/N=C/c2ccco2)cc1OC` [Compound 21, N-[2-(Furan-2-ylmethylene-hydrazinocarbonyl)-phenyl]-3,4-dimethoxy-benzamide] was 21.5 µM; that for `O=C(Nc1sccc1C(=O)N/N=C/c1ccc(Cl)c(C(F)(F)F)c1)c1cccc(CSCCCO)c1` [Compound 662, N-[3-(4-Chloro-3-trifluoromethyl-benzylidene-hydrazinocarbonyl)-thiophen-2-yl]-3-(3-hydroxy-propylsulfanylmethyl)-benzamide] was 3.2 µM; that for `CCN1CC(NCc2ccc(C(=O)Nc3ccc(Br)cc3C(=O)N/N=C/c3ccc(OC)cc3)cc2)CN1CC` [Compound 756, N-[4-Bromo-2-(4-methoxy-benzylidene-hydrazinocarbonyl)-phenyl]-4-[(1,2-diethyl-pyrazolidin-4-ylamino)-methyl]-benzamide] was 10.3 µM.

With `COc1ccc(C(=O)Nc2ccc(Br)cc2C(=O)N/N=C/c2ccccc2C)cc1OC` [Compound 30, N-[4-Bromo-2-(2-methyl-benzylidene-hydrazinocarbonyl)-phenyl]-3,4-dimethoxy-benzamide], the IC50 was 7.86 µM. The same measure, in the same setting: the value for `O=C(Nc1ccccc1C(=O)N/N=C/c1cccc(O)c1)c1ccccc1F` [Compound 39, 2-Fluoro-N-[2-(3-hydroxy-benzylidene-hydrazinocarbonyl)-phenyl]-benzamide] was 9.24 µM.

The same assay, now with this note: phosphate uptake, oocytes expressing rat NaPi-2b; 300 μM, determined from inhibition curve.
In turn, `CN1CCCN(c2ccc3nc(-c4cccc(CSCCO)c4)n(/N=C/c4ccc(Cl)c(C(F)(F)F)c4)c(=O)c3c2)CC1` [Compound 932, 3-[(4-Chloro-3-trifluoromethyl-benzylidene)-amino]-2-[3-(2-hydroxy-ethylsulfanylmethyl)-phenyl]-6-(4-methyl-[1,4]diazepan-1-yl)-3 H-quinazolin-4-one] returned an inhibition at 300 µM of 36.1%.
